Drawing on PubChem BioAssay (NCI), this text covers TGI for eight compounds.

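Where inhibition never reached the appropriate level, the endpoint shown equals the highest concentration tested. Otherwise, values were interpolated linearly from a five-concentration, 48-hour dose response in 96-well plates. At the TGI there is no net growth.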

Holding throughout (assay): NCI tumour cell line growth inhibition, 48 h
In test [1] the test system is CCRF-CEM leukemia.
Test [2] deals with CAKI-1 renal.
The test system of test [3] is MALME-3M melanoma.
Test [4] concerns SF-268 CNS.
Test [5] has as its system NCI-H460 lung.
In test [6] the test system is SR leukemia.
Test [7] deals with SK-OV-3 ovarian.
Test [8] relates to MDA-N.
In test [9] the test system is NCI-H226 lung.
Test [10] deals with SW-620 colon.
Test [11] relates to 786-0 renal.
Test [12] concerns RXF 393 renal.
Test [13] has as its system OVCAR-3 ovarian.
The test system of test [14] is UACC-62 melanoma.
Test [15] concerns UO-31 renal.
The subject of test [16] is U251 CNS.
Test [17] concerns OVCAR-8 ovarian.
For test [18], the system named is SNB-75 CNS.

Turning to `O=c1ccn2n1CCCCC2`, the TGI in [1], in test [2], in test [3], in test [4], in test [5] and in test [6] was over 100 µM each time. Further, the TGI in [7], in test [8], in test [9], in [10], in test [11] and in [12] was over 100 µM in each case. For the same compound, the TGI in test [13], in [14], in test [15], in [16] and in test [17] was over 100 µM each time.
As for `COc1ccc(/C=C/C(=O)N[C@@H]2C(=O)N3[C@@H]2SC(C)(C)[C@@H]3C(=O)O)cc1`, the TGI in test [1], in test [2], in test [4], in test [18], in test [5] and in test [6] was over 100 µM each time. Moreover, the TGI in [7], in [8], in [9], in test [10], in [11] and in test [12] was over 100 µM in each case. The TGI in test [13], in test [14], in [15], in [16] and in test [17] was over 100 µM in each case.
For `O=C1CC2(CCNCC2)C(=O)N1N1CCCC1`, the TGI in test [1], in [2], in test [3], in test [6], in test [7] and in [8] was over 100 µM throughout. In addition, the TGI in test [9], in test [10], in test [11], in test [12], in test [13] and in [14] was over 100 µM each time. Moreover, the TGI in test [15], in [16] and in [17] was over 100 µM in each case.
With `N#CC1=C(N)OC(c2ccc([N+](=O)[O-])cc2)C1(C#N)C#N` (stereo unspecified), the TGI in test [1] was 43.3 µM; in [2], 13 µM; in test [3] it was 24.1 µM; in [4] it was over 54.3 µM; in test [18] it was 44.6 µM; in test [6], 41.7 µM. In addition, the TGI is over 100 µM in test [7]; 24.6 µM in test [8]; 41.5 µM in test [9]; 33.9 µM in [10]; 25 µM in [11]; 21 µM in [12]. The TGI in test [14] is 24.3 µM; in test [15], 11.5 µM; in test [16], over 78.2 µM; in [17], 32.3 µM.
`CC(C)NC(=O)OCc1c(COC(=O)NC(C)C)n(C)c2c1ccc1ccccc12`: the TGI is 1.94 µM in test [2]; 2.24 µM in test [3]; 6.2 µM in [4]; 7.11 µM in [18]; 7.7 µM in test [5]; over 100 µM in test [6]. The TGI was determined as 22.2 µM in test [7]; 4.22 µM in [8]; 5.43 µM in [9]; 2.4 µM in test [10]; 2.5 µM in test [11]; 2.65 µM in test [12]. Further, the TGI in test [13] was found to be 12.4 µM; in test [14], 2.92 µM; in test [15], 4.09 µM; in test [16], 4.24 µM; in [17], 4.5 µM.
In the case of `CCOP(=O)(OCC)/C(C#N)=C/c1cccn1CC(C)C`, the TGI in [2], in [3], in test [4], in test [18], in test [5] and in [6] was over 100 µM each time. In addition, the TGI in [7], in test [8], in test [9], in test [10], in test [11] and in [12] was over 100 µM each time. Moreover, the TGI in test [13], in [14], in test [15], in test [16] and in test [17] was over 100 µM throughout.
As to `ClC1=C(Cc2ccccc2)Cc2ccc3c(c21)CCC3`, the TGI in test [1] is 90.1 µM; in test [2] it was 69.7 µM; in test [3], 59.7 µM; in test [4] it was over 100 µM; in test [6] it was 36.9 µM; in test [7], over 100 µM. The TGI was over 100 µM in test [8]; 74.1 µM in test [9]; over 100 µM in [10]; 89.1 µM in [11]; 45 µM in test [12]; 87.2 µM in test [13]. The TGI was 60.3 µM in test [14], 69.6 µM in [15], 39.3 µM in test [16] and over 100 µM in test [17].
Take `c1ccc2c(c1)Nc1nc3nonc3nc1N2`: the TGI in test [1], in test [2], in [3], in test [4], in test [5] and in [6] was over 100 µM each time. Further, the TGI in test [7], in test [8], in [9], in [10], in test [11] and in [12] was over 100 µM in each case. Moreover, the TGI in test [14], in [15], in test [16] and in test [17] was over 100 µM each time.
